According to US12054466B2, “Compounds for the treatment of clostridium difficile infection” (University of Notre Dame du Lac, priority 2016, dated 2024):
In brackets after ≈: the same amount, converted by molar mass. Where two headings read alike, the source gives them in different places.

Tests used:
C. difficile [1] = experiment: MIC against C. difficile (strain not named; 14 strains overall); assay type: cell-based, Clostridium difficile; settings: for C. difficile MIC: strain not named
C. difficile ATCC43255 = experiment: MIC, broth microdilution; assay type: cell-based; settings: Clostridioides difficile
C. difficile BAA-1801 = experiment: MIC, broth microdilution; assay type: cell-based; settings: Clostridioides difficile, BAA1801, C. difficile BAA-1801 (nontoxigenic)
[2] = system: Lactobacillus gasseri HM-644; experiment: MIC against common gut bacteria; assay type: cell-based; settings: HM644; Lactobacillus gasseri HM-644; read-out: MIC
C. difficile BAA-1812 = experiment: MIC, broth microdilution; assay type: cell-based; settings: Clostridioides difficile, BAA1812, C. difficile BAA-1812
[3] = system: Fusobacterium nucleatum HM-992; experiment: MIC against common gut bacteria; assay type: cell-based; settings: HM992; Fusobacterium nucleatum HM-992; read-out: MIC
[4] = system: Lactobacillus reuteri HM-102; experiment: MIC against common gut bacteria; assay type: cell-based; settings: Limosilactobacillus reuteri, HM102; Lactobacillus reuteri HM-102; read-out: MIC
[5] = system: Bacteroides fragilis HM-709; experiment: MIC against common gut bacteria; assay type: cell-based; settings: HM709; Bacteroides fragilis HM-709; read-out: MIC
Bacteroides ovatus = experiment: MIC against common gut bacteria; assay type: cell-based; settings: read-out: MIC
C. difficile infection = settings: patients treated for CDI; cited from earlier work
Veillonella sp. HM-49 = experiment: MIC against common gut bacteria; assay type: cell-based; settings: SP.HM49; Veillonella sp. HM-49; read-out: MIC
C. difficile BAA-1870 = experiment: MIC, broth microdilution; assay type: cell-based; settings: Clostridioides difficile, BAA1870, C. difficile BAA-1870 (NAP1, ribotype 27)
C. difficile BAA-1803 = experiment: MIC, broth microdilution; assay type: cell-based; settings: Clostridioides difficile, BAA1803, C. difficile BAA-1803 (NAP1, ribotype 027)
C. difficile BAA-1804 = experiment: MIC, broth microdilution; assay type: cell-based; settings: Clostridioides difficile, BAA1804, C. difficile BAA-1804
Bacteroides fragilis = experiment: MIC against common gut bacteria; assay type: cell-based; settings: read-out: MIC
[6] = system: Corynebacterium sp. HM-784; experiment: MIC against common gut bacteria; assay type: cell-based; settings: SP.HM784; Corynebacterium sp. HM-784; incubated aerobically; read-out: MIC
Procedure: Minimally-inhibitory concentrations. MICs for C. difficile strains and the common gut bacteria were determined using broth microdilution techniques as reported earlier using brucella broth supplemented with hemin and vitamin K or supplemented BHIS broth (Babakhani et al., J Antimicrob Chemother 2013, 68(3), 515). Lactobacillus MRS broth was used for lactobacillus strains. […] All incubations unless specified otherwise were carried out at 24 or 48 h at 37° C. in an anaerobic chamber (Whitley DG250 workstation, Microbiology International, Frederick, MD). Corynebacterium and lactobacillus species were incubated aerobically.

Bacteroides vulgatus = experiment: MIC against common gut bacteria; assay type: cell-based; settings: Phocaeicola vulgatus; Bacteroides vulgatus; read-out: MIC
C. difficile ATCC43598 = experiment: MIC, broth microdilution; assay type: cell-based; settings: Clostridioides difficile, C. difficile ATCC43598
Bacteroides caccae = experiment: MIC against common gut bacteria; assay type: cell-based; settings: read-out: MIC
C. difficile [7] = settings: cited from earlier work
[8] = system: Bifidobacterium longum HM-846; experiment: MIC against common gut bacteria; assay type: cell-based; settings: HM846; Bifidobacterium longum HM-846; read-out: MIC
Bacteroides eggerthii = experiment: MIC against common gut bacteria; assay type: cell-based; settings: read-out: MIC
[9] = system: DNA, protein and peptidoglycan synthesis in C. difficile ATCC 43255; experiment: Macromolecular synthesis assays; assay type: cell-based; settings: N-acetyl-d-[6-3H]-glucosamine incorporation; ½ MIC; 120 min
Excerpt: Macromolecular synthesis assays. The method of Mathur et al (J Antimicrob Chemother 2011, 66(5), 1087) was used with a few modifications. [2,8-^3H]-adenine (40 Ci/mmol), 1-[3,4,5-^3H(N)]-leucine (120 Ci/mmol), and N-acetyl-d-[6-^3H]-glucosamine (30 Ci/mmol) were purchased from Perkin Elmer (Waltham, MA). Ciproflaxin, linezolid, and oxacillin, were used as positive controls for DNA, protein, and peptidoglycan, respectively. Ciprofloxacin and oxacillin were purchased from Sigma-Aldrich (St. Louis, MO), linezolid was obtained from AmplaChem Inc. (Carmel, IN). […] Aliquots were taken every 30 min for radioactive counting and viability. Optimal incubation times were 60 min for DNA, 180 min for protein, and 120 min for peptidoglycan.

[10] = ATCC43255, FIG. 3 legend, C. difficile, read-out: MIC of positive controls of the macromolecular synthesis assays

In the case of Oc1ccc(-c2nc(-c3ccc(OC4CCCC=C4Br)cc3)no2)cc1 (centres unmarked) [ix], the C. difficile MIC (C. difficile [1]) is reported as 2 µg/mL.

CC(=O)NC[C@H]1CN(c2ccc(N3CCOCC3)c(F)c2)C(=O)O1 [linezolid] gave an MIC (C. difficile ATCC43255; [10]) of 2 µg/mL.

In the case of Cc1ncc([N+](=O)[O-])n1CCO [metronidazole], the MIC (C. difficile BAA-1801; 24 h, read-out: MIC at 24 h) is reported as 0.125 µg/mL (≈ 0.73 µM), the MIC (C. difficile BAA-1801; 48 h, read-out: MIC at 48 h) is reported as 0.125 µg/mL (≈ 0.73 µM) and the MIC [2] is reported as > 32 µg/mL. The MIC (C. difficile BAA-1812; 24 h, read-out: MIC at 24 h) was 0.25 µg/mL (≈ 1.46 µM), the MIC (C. difficile BAA-1812; 48 h, read-out: MIC at 48 h) was 0.25 µg/mL (≈ 1.46 µM) and the MIC [3] was 2 µg/mL (≈ 11.7 µM). The MIC [4] was > 32 µg/mL, the MIC [5] was 0.5 µg/mL (≈ 2.92 µM) and the “MIC range in 14 C. difficile strains” value (C. difficile [1]; 14 C. difficile strains) was 0.1 to 0.25 µg/mL. For the same compound, the MIC (Bacteroides ovatus) was 2 µg/mL (≈ 11.7 µM), the “Patients with recurrence of the infection” value (C. difficile infection) was “About 25%” and the MIC (Veillonella sp. HM-49) was 2 µg/mL (≈ 11.7 µM). It also gave an MIC (C. difficile BAA-1870; 24 h, read-out: MIC at 24 h) of 0.25 µg/mL (≈ 1.46 µM), an MIC (C. difficile BAA-1870; 48 h, read-out: MIC at 48 h) of 0.5 µg/mL (≈ 2.92 µM) and an MIC (C. difficile BAA-1803; 24 h, read-out: MIC at 24 h) of 0.25 µg/mL (≈ 1.46 µM). It also gave an MIC (C. difficile BAA-1803; 48 h, read-out: MIC at 48 h) of 0.5 µg/mL (≈ 2.92 µM), an MIC (C. difficile ATCC43255; C. difficile ATCC43255, 24 h, read-out: MIC at 24 h) of 0.01 µg/mL (≈ 0.0584 µM) and an MIC (C. difficile ATCC43255; C. difficile ATCC43255, 48 h, read-out: MIC at 48 h) of 0.01 µg/mL (≈ 0.0584 µM). The MIC (C. difficile BAA-1804; 24 h, read-out: MIC at 24 h) was 0.25 µg/mL (≈ 1.46 µM), the MIC (C. difficile BAA-1804; 48 h, read-out: MIC at 48 h) was 0.25 µg/mL (≈ 1.46 µM) and the MIC (Bacteroides fragilis) was 1 µg/mL (≈ 5.84 µM). The MIC [6] was > 32 µg/mL, the MIC (Bacteroides vulgatus) was 2 µg/mL (≈ 11.7 µM) and the MIC (C. difficile ATCC43598; 24 h, read-out: MIC at 24 h) was 0.125 µg/mL (≈ 0.73 µM). For the same compound, the MIC (C. difficile ATCC43598; 48 h, read-out: MIC at 48 h) was 0.125 µg/mL (≈ 0.73 µM), the MIC (Bacteroides caccae) was 2 µg/mL (≈ 11.7 µM) and the “Activity against C. difficile spores” value (C. difficile [7]; at 8× or 80× MIC) was “not active”. For the same compound, the “Inhibition of toxin production” value (C. difficile [7]; at 8×MIC) was “Neither vancomycin nor metronidazole inhibit toxin production”, the MIC [8] was 0.5 µg/mL (≈ 2.92 µM) and the MIC (Bacteroides eggerthii) was 2 µg/mL (≈ 11.7 µM).

For Cc1onc(-c2ccccc2)c1C(=O)N[C@@H]1C(=O)N2[C@@H]1SC(C)(C)[C@@H]2C(=O)O [oxacillin], the “Inhibition of peptidoglycan synthesis” value [9] was 54.1±13% and the MIC (C. difficile ATCC43255; [10]) was 8 µg/mL.

With NCc1ccc(-c2nc(-c3ccc(Oc4ccc(C(F)(F)F)cc4)cc3)no2)cc1 [xxi] the C. difficile MIC (C. difficile [1]) was 4 µg/mL.

With Oc1ccc(-c2nc(-c3ccc(OC(F)(F)F)cc3)no2)cc1 [xvii] the C. difficile MIC (C. difficile [1]) was 4 µg/mL.

O=C(O)c1cn(C2CC2)c2cc(N3CCNCC3)c(F)cc2c1=O [ciprofloxacin] showed an MIC (C. difficile ATCC43255; [10]) of 8 µg/mL.

Oc1ccc(-c2nc(-c3ccc(OC4CC4)cc3)no2)cc1 [vii] gave a C. difficile MIC (C. difficile [1]) of 8 µg/mL.

Oc1ccc(-c2nc(-c3ccc(OC4CCCC4)cc3)no2)cc1 [xxii] gave a C. difficile MIC (C. difficile [1]) of 2 µg/mL.

In the case of Oc1ccc(-c2nc(-c3ccc(OC4CCC=C4Br)cc3)no2)cc1 (centres unmarked) [xi], the C. difficile MIC (C. difficile [1]) is reported as 2 µg/mL.

For CCCCCc1ccc(/C(C)=C/C(=O)N[C@H](Cc2c[nH]c3ccccc23)C(=O)N[C@H](CC(N)=O)C(=O)N[C@@H](CC(=O)O)C(=O)N[C@@H]2C(=O)NCC(=O)N[C@@H](CCCN)C(=O)N[C@@H](CC(=O)O)C(=O)N[C@H](C)C(=O)N[C@@H](CC(=O)O)C(=O)NCC(=O)N[C@H](CO)C(=O)N[C@@H]([C@H](C)CC(=O)O)C(=O)N[C@@H](CC(=O)c3ccccc3N)C(=O)O[C@@H]2C)cc1 [surotomycin], the “Inhibition of toxin production” value (C. difficile [7]; […]) is given as “nor inhibits toxin production”.
